Measured values: patent US9676734B2, “Compounds and methods” (VIRONOVA INFLUENZA AB, priority 2012, dated 2017)

Tested on: Caco2
Test: Caco2 permeability assay
Type: in vitro ADME
Details: relative to Nucleozin
Protocol: A Caco2 permeability assay was performed using the inventive compound VNFC 0009 as well as Nucleozin.

Cc1onc(-c2ccccc2)c1C(=S)N1CCN(c2ccc([N+](=O)[O-])cc2Cl)CC1 [VNFC 0009, (4-(2-chloro-4-nitrophenyl)piperazin-1-yl)(5-methyl-3-phenylisoxazol-4-yl)methanethione]
Caco2 permeability in the apical to basal direction, higher than that of Nucleozin (apical to basal): about 30%
basal to apical Caco2 permeability, times lower than that of Nucleozin (basal to apical): ~7 times
